Consider six molecules from patent publication US20220177484A1, “MACROCYCLES WITH ANTIOXIDANT AND NEUROPROTECTIVE ACTIVITIES” (INSTITUTO BIOMAR, S.A, priority 2019, published 2022).

Format in all cases: cell-based
Experiment [1] has as its system cortical primary neurons (from C57BL6/J mice). Briefly: H2O2 production in neurons after excitotoxic NMDA stimulus (Amplex Red). The note with it: 100 μM NMDA 10 min, then compound 0.1, 1, 5 μM (FIG. 5). The procedure: For NMDA receptors activation, neurons at 8 days in vitro were incubated with 100 μM NMDA for 10 minutes. Neurons were then washed and further incubated for 4 hours in culture medium with DMSO only (DMSO empty bar), DMSO and NMDA (DMSO filled bar) and with increasing quantities of GKK1032C, GKK1032, Pyrrocidine A, Pyrrocidine B, CL0661, CL0667 and CL0670. Concentrations of 0.1 μM, 1 μM, 5 μM. *: p-value <0.05 vs. DMSO+NMDA (student's test).
(§1) Experiments were performed in […] cortical primary neurons, obtained as was previously described (Herrero-Mendez A. et al., Nat. Cell. Biol. 11:747-752, 2009). After 7 or 8 days in B27-MAO culture, neurons (from C57BL6/J mice) were incubated in the presence of N-methyl-D-aspartate (NMDA, a H2O2 production promoter; 100 μM) for 10 minutes, followed by a PBS washing step and submitted to a 24-hour B27 incubation step in the absence (DMSO) or presence of increasing amounts of GKK1032C, GKK1032, Pyrrocidine B, Pyrrocidine A, CL0661, CL0665, CL0667 and CL0670 (0.1 μM, 1 μM and 5 μM). B27-MAO stands for Neurobasal medium, supplemented with B27 supplement in the absence of antioxidants (minus antioxidants, MAO).
The release of H2O2 was measured using the fluorescent method Amplex© Red hydrogen peroxide/peroxidase assay kit (Invitrogen, catalog number A22188) using a multiwell fluorescence reader (Varioskan, Thermo Scientific).
(§2) The data are presented as the mean values±standard deviation of the mean from n=3.

The test system is the same in experiment [2]. Briefly: Caspase-3 activity (neuronal apoptosis) after excitotoxic NMDA stimulus. The note with it: 100 μM NMDA 10 min, then 24 h with compound 0.1, 1, 5 μM (FIG. 6). As to the method: For NMDA receptors activation, neurons at 8 days in vitro were incubated with 100 μM NMDA for 10 minutes. Neurons were then washed and further incubated for 24 hours in culture medium with DMSO only (DMSO empty bar), DMSO and NMDA (DMSO filled bar) and with increasing quantities of GKK1032C, GKK1032, Pyrrocidine B, CL0661, CL0665, CL0667 and CL0670. Concentrations of 0.1 μM, 1 μM, 5 μM. *: pvalue <0.05 vs. DMSO+NMDA (student's test).
as §1
Neuronal apoptosis was determined by measuring caspase-3 activity (Veas-Perez de Tudela et al. Sci Rep 5:18180; doi:10.1038/srep18180 (2015).
as §2

Experiment [3] has as its system rat cortical primary neurons. Briefly: H2O2 formation in cortical primary neurons treated with L-BSO and rotenone (Amplex Red). Conditions: compound 1 μg/ml together with L-BSO and rotenone for 6 h, washed, recorded 2 h (FIG. 2). As to the method: The data are presented as the mean values±[…] of the mean (SEM) from n=6 (i.e., 6 independent wells measured independently).
After this period, cells were again washed and determined the rate of H2O2 production during the next 2 h.

In the case of `C=C[C@@H]1C=C(C)[C@H]2[C@@H]3[C@H](Oc4ccc(cc4)C[C@@]4(O)C[C@H](C(=O)N4)C(=O)[C@@H]13)[C@@H]1[C@@H](C)C[C@@H](C)C[C@]12C` [Pyrrocidine B, reference compound], the “H2O2 production in neuron cells after NMDA” value (from here on “H2O2 production”) in experiment [1] is “successful in preventing H2O2 from being produced”. Also, the “neuronal apoptosis (caspase-3 activity) after NMDA” value (from here on “neuronal apoptosis”) in experiment [2] is reported as “effective in protecting neuron cells against apoptosis”.

For the molecule `C=C[C@@H]1C=C(C)[C@H]2[C@@H]3[C@H](Oc4ccc(cc4)C[C@@]4(O)C=C(C(=O)N4)C(=O)[C@@H]13)[C@@H]1[C@@H](C)C[C@@H](C)C[C@]12C` [Pyrrocidine A, reference compound], the “rate of H2O2 formation” value in experiment [3] is listed as “significantly impaired”. For the same molecule, the “H2O2 production” value in experiment [1] was “successful in preventing H2O2 from being produced”.

Take `C=CC1(C)C=C(C)C2C3C(Oc4ccc(cc4)CC45OC4(C(=O)NC5=O)C(=O)C31)C1C(C)CC(C)CC21C` (stereo not drawn) [CL0661]: the “H2O2 production” value in experiment [1] is listed as “successful in preventing H2O2 from being produced”. Moreover, the “neuronal apoptosis” value in experiment [2] is “effective in protecting neuron cells against apoptosis”.

Regarding `C=C[C@@]1(C)C=C(C)C2C3[C@H](Oc4ccc(cc4)CC4C(=O)NC(=O)[C@H]4C(=O)[C@H]31)C1[C@@H](C)C[C@@H](C)C[C@@]21C` (stereo partly drawn) [GKK1032, reference compound], the “rate of H2O2 formation” value in experiment [3] is “significantly impaired”. Moreover, the “H2O2 production” value in experiment [1] was “successful in preventing H2O2 from being produced”. Besides, the “neuronal apoptosis” value in experiment [2] is recorded as “effective in protecting neuron cells against apoptosis”.

`C=CC1(C)C=C(C)C2C3C(Oc4ccc(cc4)CC4C(=O)N(CC#N)C(=O)C4C(=O)C31)C1C(C)CC(C)CC21C` (stereo not drawn) [CL0667]: in experiment [1], the “H2O2 production” value is given as “successful in preventing H2O2 from being produced”. In addition, in experiment [2], the “neuronal apoptosis” value was “effective in protecting neuron cells against apoptosis”.

Take `CC1=CC2(C)C(C)O/C3=C4\C(=O)NC(=O)C4Cc4ccc(cc4)OC4C(C32)C1C1(C)CC(C)CC(C)C41` (stereo not drawn) [CL0665]: the “neuronal apoptosis” value in experiment [2] is “effective in protecting neuron cells against apoptosis”.
